# Experimental data taken from publication PMC6405930, “Conservation of the Amyloid Interactome Across Diverse Fibrillar Structures” (Scientific Reports, 2019).
# Experiments:
# FAS4-AD aggregates [1] = test system: T1, FAS4-AD aggregates; assay: Fibril incubation with plasma, quantitative MS/MS of bound proteins; format: binding, human; design: key to Identification status of plasma protein bound: FAS4-AD: *: Identified, but not quantified; —: Not identified in any of the samples; conditions: for Relative composition of plasma proteins bound: FAS4-AD: 50:1 w/w plasma protein:fibril; for Identification status of plasma protein bound: FAS4-AD: symbol cells
# T1 construct: aggregates of a mutated version of the FAS1-4 domain of TGFBIp
# Protocol: (§1) Plasma and CSF solutions were centrifuged (40,000 g, 20 min) to remove any aggregates. The protein concentration was determined using 280 nm absorbance assuming 1 Abs = 1 mg/mL. […] Control samples (without fibril material) were prepared similarly. All samples were incubated at room temperature for one hour under gentle agitation. Fibrils and fibril-bound proteins were pelleted by centrifugation at 17,000 g for 30 minutes. The supernatant (175 μL) was removed and the aggregate was re-suspended in 175 μL PBS and pelleted again before further preparation for gel analysis and spin-filter assisted digest for quantitative MS/MS.
# (§2) The fibril-protein pellets were transferred to spin-filters (0.22 μm), washed twice in PBS (100 μL) and once in 1 M NaCl (100 μL). The fibrils and fibril-bound proteins were dissolved by one-hour incubation in 100 μL 6 M guanidinium chloride followed by elution from the spin-filter. The eluted proteins were loaded onto a 3 kDa MWCO filter unit for filter-assisted unfolding, reduction, alkylation, and trypsin digestion. In brief, samples were washed twice in 8 M urea, once in 8 M urea with 50 mM DTT, once in 8 M urea with 50 mM iodoaceteamide, and twice in 8 M Urea. The filter units were dried by centrifugation (14,000 g in 30 minutes) after every addition. Trypsin digestion was carried out with 0.25 μg sequencing grade trypsin from Sigma Aldrich in 50 mM ammonium bicarbonate overnight at 37 °C. The tryptic peptides were collected by centrifugation, acidified with TFA (0.1%) and micro-purified using POROS R2 column material (Applied Biosystems) packed in P200 pipette tips (Sarstedt).
# (§3) LC-MS/MS analyses were performed on an EASY-nLC II system (Thermo Fisher Scientific) connected to a TripleTOF 5600+ mass spectrometer (Sciex) equipped with a NanoSpray III source (Sciex) and operated under Analyst TF 1.6.0 control.
# (§4) The micro-purified tryptic peptides were dissolved in 0.1% formic acid, injected and trapped on an in-house packed trap column (2 cm × 100 μm I.D) with RP ReproSil-Pur C18-AQ 3 μm resin (Dr. Maisch GmbH). Peptides were eluted from the trap column and separated on a 15 cm analytical column (75 μm i.d.) packed in-house in a pulled emitter with RP ReproSil-Pur C18-AQ 3 μm resin (Dr. Maisch GmbH). Elution from the analytical column was performed with a linear gradient from 5% to 35% phase B (90% acetonitrile with 0.1% formic acid) over 20 min for protein identification and 50 min for quantitative analysis, respectively.
# (§5) All samples were analysed three times, yielding nine MS/MS experiments for each fibril for both plasma and CSF. For the area-based extracted ion chromatogram (XIC) quantification, the acquisition method was set up as an information-dependent acquisition (IDA) experiment collecting up to 25 MS/MS spectra in each 1.6 sec cycle using an exclusion window of 6 sec.
# (§6) XIC quantification was based on the average ion intensity of the three most abundant peptides for each protein. Only proteins quantified in at least four out of nine MS/MS experiments per fibril were included in the quantification. The total ion scores were visualized after grouping the proteins according to function (Figure S11).
# (§7) For each MS/MS experiment, the ion intensities of the individual proteins were normalized to the total ion intensity of that MS/MS experiment to achieve a relative protein composition. The contribution of each protein was averaged over all nine MS/MS experiments (Tables 1 and 2).
# Ab2 fibrils [2] = test system: T2, Ab2 fibrils; assay: as above; format: binding, human; design: key to Identification status of plasma protein bound: Ab2: *: Identified, but not quantified; —: Not identified in any of the samples; conditions: for Relative composition of plasma proteins bound: Ab2: 50:1 w/w plasma protein:fibril; for Identification status of plasma protein bound: Ab2: symbol cells
# T2 construct: Two structurally distinct fibrils of the Aβ(1–40) peptide associated with AD
# Protocol: as §1, §2, §3, §4, §5, §6, §7
# glucagon fibrils [3] = biological target: T3, glucagon fibrils (Homo sapiens, UniProt P01275); assay: as above; format: binding; design: key to Identification status of plasma protein bound: Glucagon: *: Identified, but not quantified; —: Not identified in any of the samples; conditions: for Relative composition of plasma proteins bound: Glucagon: 50:1 w/w plasma protein:fibril
# T3 construct: fibrils of the peptide hormone glucagon
# Protocol: as §1, §2, §3, §4, §5, §6, §7
# Ab1 fibrils [4] = test system: T4, Ab1 fibrils; assay: as above; format: binding, human; design: key to Identification status of plasma protein bound: Ab1: *: Identified, but not quantified; —: Not identified in any of the samples; conditions: for Relative composition of plasma proteins bound: Ab1: 50:1 w/w plasma protein:fibril
# T4 construct: Synthetic amyloid β peptide 1–40 was purchased from Caslo Aps (Lyngby, Denmark); purchased Caslo Aps (Lyngby, Denmark); host or cells: synthetic peptide
# Protocol: Plasma and CSF solutions were centrifuged (40,000 g, 20 min) to remove any aggregates. The protein concentration was determined using 280 nm absorbance assuming 1 Abs = 1 mg/mL. […] Control samples (without fibril material) were prepared similarly. All samples were incubated at room temperature for one hour under gentle agitation. Fibrils and fibril-bound proteins were pelleted by centrifugation at 17,000 g for 30 minutes. The supernatant (175 μL) was removed and the aggregate was re-suspended in 175 μL PBS and pelleted again before further preparation for gel analysis and spin-filter assisted digest for quantitative MS/MS.
# as §2, §3, §4, §5, §6, §7
# C-36 fibrils [5] = biological target: T5, C-36 fibrils (Homo sapiens, UniProt P01009); assay: as above; format: binding; conditions: 50:1 w/w plasma protein:fibril
# T5 construct: the 36 residue C-terminal fragment of α1-antitrypsin (C-36)
# Protocol: as §1, §2, §3, §4, §5, §6, §7
# αSN fibrils [6] = biological target: T6, αSN fibrils (Homo sapiens, UniProt P37840); assay: as above; format: binding; conditions: 50:1 w/w plasma protein:fibril
# Protocol: as §1, §2, §3, §4, §5, §6, §7
# C-36 fibrils [7] = biological target: T5, C-36 fibrils; assay: Fibril incubation with CSF, quantitative MS/MS of bound proteins; format: binding; design: key to Identification status of CSF protein bound: C-36: *: Identified, but not quantified; —: Not identified in any of the samples; conditions: for Relative composition of CSF proteins bound: C-36: 4:1 w/w CSF protein:fibril
# Protocol: as §1, §2, §3, §4, §5, §6, §7
# αSN fibrils [8] = biological target: T6, αSN fibrils; assay: as above; format: binding; design: key to Identification status of CSF protein bound: αSN: *: Identified, but not quantified; —: Not identified in any of the samples; conditions: for Relative composition of CSF proteins bound: αSN: 4:1 w/w CSF protein:fibril; for Identification status of CSF protein bound: αSN: symbol cells
# Protocol: as §1, §2, §3, §4, §5, §6, §7
# Ab1 fibrils [9] = test system: T4, Ab1 fibrils; assay: as above; format: binding, human; design: key to Identification status of CSF protein bound: Ab1: *: Identified, but not quantified; —: Not identified in any of the samples; conditions: for Relative composition of CSF proteins bound: Ab1: 4:1 w/w CSF protein:fibril
# Protocol: as §1, §2, §3, §4, §5, §6, §7
# FAS4-AD aggregates [10] = test system: T1, FAS4-AD aggregates; assay: as above; format: binding, human; design: key to Identification status of CSF protein bound: FAS4-AD: *: Identified, but not quantified; —: Not identified in any of the samples; conditions: for Identification status of CSF protein bound: FAS4-AD: symbol cells
# Protocol: as §1, §2, §3, §4, §5, §6, §7
# glucagon fibrils [11] = biological target: T3, glucagon fibrils; assay: as above; format: binding; conditions: 4:1 w/w CSF protein:fibril
# Protocol: as §1, §2, §3, §4, §5, §6, §7
# Ab2 fibrils [12] = test system: T2, Ab2 fibrils; assay: as above; format: binding, human; design: key to Identification status of CSF protein bound: Ab2: *: Identified, but not quantified; —: Not identified in any of the samples; conditions: for Relative composition of CSF proteins bound: Ab2: 4:1 w/w CSF protein:fibril
# Protocol: as §1, §2, §3, §4, §5, §6, §7
# T3 sequence (P01275 53-81 limits assumed): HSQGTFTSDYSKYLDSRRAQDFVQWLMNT
# T5 sequence (P01009 383-418 limits assumed): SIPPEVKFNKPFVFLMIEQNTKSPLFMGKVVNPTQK
Substance,Relative composition of plasma proteins bound: Ab2 (Ab2 fibrils [2]),Relative composition of plasma proteins bound: Glucagon (glucagon fibrils [3]),Relative composition of plasma proteins bound: Ab1 (Ab1 fibrils [4]),Relative composition of plasma proteins bound: C-36 (C-36 fibrils [5]),Relative composition of plasma proteins bound: αSN (αSN fibrils [6]),Relative composition of CSF proteins bound: C-36 (C-36 fibrils [7]),Relative composition of CSF proteins bound: Ab1 (Ab1 fibrils [9]),Relative composition of CSF proteins bound: Glucagon (glucagon fibrils [11]),Relative composition of CSF proteins bound: Ab2 (Ab2 fibrils [12]),Identification status of CSF protein bound: FAS4-AD (FAS4-AD aggregates [10]),other results
Fibrinogen γ chain: plasma protein bound to fibrils,7.0 ± 0.3 % of total protein,6.7 ± 0.3 % of total protein,9.8 ± 0.3 % of total protein,11.7 ± 2.0 % of total protein,7.7 ± 1.3 % of total protein,,,,,,Relative composition of plasma proteins bound: FAS4-AD (FAS4-AD aggregates [1]): 1.5 ± 0.4 % of total protein
"Apolipoprotein C-I: plasma protein bound to fibrils (TPDVSSALDKLKEFGNTLEDKARELISRIKQSELSAKMREWFSETFQKVKEKLKIDS; UniProt P02654 27-83, looked up)",,,,0.6 ± 0.4 % of total protein,5.5 ± 2.1 % of total protein,,,,,,Relative composition of plasma proteins bound: FAS4-AD (FAS4-AD aggregates [1]): 1.8 ± 0.1 % of total protein; Identification status of plasma protein bound: Ab2 (Ab2 fibrils [2]): *; Identification status of plasma protein bound: Glucagon (glucagon fibrils [3]; symbol cells): *; Identification status of plasma protein bound: Ab1 (Ab1 fibrils [4]; symbol cells): *
Transthyretin,,,,,,2.4 ± 0.2 % of total protein,3.0 ± 0.5 % of total protein,1.1 ± 0.2 % of total protein,4.0 ± 1.3 % of total protein,,Relative composition of CSF proteins bound: αSN (αSN fibrils [8]): 4.3 ± 1.1 % of total protein; Relative composition of CSF proteins bound: FAS4-AD (FAS4-AD aggregates [10]; 4:1 w/w CSF protein:fibril): 4.4 ± 0.3 % of total protein
Gelsolin,,,,,,1.9 ± 0.2 % of total protein,2.9 ± 0.1 % of total protein,0.8 ± 0.1 % of total protein,3.5 ± 0.6 % of total protein,—,Relative composition of CSF proteins bound: αSN (αSN fibrils [8]): 5.0 ± 0.9 % of total protein
Vitamin K-dependent protein S: plasma protein bound to fibrils,1.3 ± 0.1 % of total protein,0.8 ± 0.1 % of total protein,1.1 ± 0.0 % of total protein,0.6 ± 0.1 % of total protein,2.5 ± 0.1 % of total protein,,,,,,Identification status of plasma protein bound: FAS4-AD (FAS4-AD aggregates [1]): *
Fibrinogen β chain: plasma protein bound to fibrils,7.5 ± 0.9 % of total protein,8.9 ± 1.1 % of total protein,11.8 ± 1.1 % of total protein,9.1 ± 0.8 % of total protein,7.7 ± 2.3 % of total protein,,,,,,Relative composition of plasma proteins bound: FAS4-AD (FAS4-AD aggregates [1]): 1.8 ± 0.2 % of total protein
Ig κ chain C region: CSF protein bound to fibrils,,,,,,,,0.5 ± 0.0 % of total protein,,*,Identification status of CSF protein bound: C-36 (C-36 fibrils [7]; symbol cells): *; Identification status of CSF protein bound: αSN (αSN fibrils [8]): *; Identification status of CSF protein bound: Ab1 (Ab1 fibrils [9]; symbol cells): *; Identification status of CSF protein bound: Ab2 (Ab2 fibrils [12]; symbol cells): *
Dickkopf-related protein 3: CSF protein bound to fibrils,,,,,,3.9 ± 1.5 % of total protein,7.2 ± 0.3 % of total protein,1.5 ± 0.4 % of total protein,5.5 ± 2.2 % of total protein,—,Relative composition of CSF proteins bound: αSN (αSN fibrils [8]): 10.9 ± 1.0 % of total protein
Coagulation factor IX: plasma protein bound to fibrils,0.3 ± 0.1 % of total protein,0.1 ± 0.0 % of total protein,0.2 ± 0.0 % of total protein,0.2 ± 0.0 % of total protein,0.3 ± 0.1 % of total protein,,,,,,Identification status of plasma protein bound: FAS4-AD (FAS4-AD aggregates [1]): *
Apolipoprotein C-III: plasma protein bound to fibrils,,0.3 ± 0.0 % of total protein,0.9 ± 0.1 % of total protein,4.9 ± 0.3 % of total protein,11.7 ± 3.0 % of total protein,,,,,,Identification status of plasma protein bound: FAS4-AD (FAS4-AD aggregates [1]): *; Identification status of plasma protein bound: Ab2 (Ab2 fibrils [2]): *; Relative composition of plasma proteins bound: αSN (αSN fibrils [6]; listed as ApoC-III): 11.7 % of total protein
Fibronectin,,,,0.2 ± 0.0 % of total protein,1.0 ± 0.0 % of total protein,0.7 ± 0.1 % of total protein,0.9 ± 0.0 % of total protein,0.2 ± 0.1 % of total protein,1.2 ± 0.3 % of total protein,—,Identification status of CSF protein bound: αSN (αSN fibrils [8]): *
